Calls of active or inactive are those of the source. No cut-off for these calls is given here.
Key:
[1] = biological target: Histone deacetylase 4 (Homo sapiens) (UniProt P56524); test: Inhibition of HDAC4 (unknown origin) assessed as remaining enzyme activity at 1 uM using Boc-(Trifluoroacetyl) Lysine-AMC fluorogenic peptide as substrate preincubated for 10 mins followed by substrate addition for 30 mins in presence of ATP by fluoroscence based assay relative to control; details: time 40.0 min
[2] = biological target: Histone deacetylase 5 (Homo sapiens) (UniProt Q9UQL6); test: Inhibition of HDAC5 (unknown origin) assessed as remaining enzyme activity at 1 uM using Boc-(Trifluoroacetyl) Lysine-AMC fluorogenic peptide as substrate preincubated for 10 mins followed by substrate addition for 30 mins in presence of ATP by fluoroscence based assay relative to control; details: time 40.0 min
[3] = biological target: Histone deacetylase 7 (Homo sapiens) (UniProt Q8WUI4); test: Inhibition of HDAC7 (unknown origin) assessed as remaining enzyme activity at 1 uM using Boc-(Trifluoroacetyl) Lysine-AMC fluorogenic peptide as substrate preincubated for 10 mins followed by substrate addition for 30 mins in presence of ATP by fluoroscence based assay relative to control; details: time 40.0 min
[4] = biological target: Histone deacetylase 9 (Homo sapiens) (UniProt Q9UKV0); test: Inhibition of HDAC9 (unknown origin) assessed as remaining enzyme activity at 1 uM using Boc-(Trifluoroacetyl) Lysine-AMC fluorogenic peptide as substrate preincubated for 10 mins followed by substrate addition for 30 mins in presence of ATP by fluoroscence based assay relative to control; details: time 40.0 min
[5] = biological target: Protein deacetylase HDAC6 (Homo sapiens) (UniProt Q9UBN7); test: Inhibition of HDAC6 (unknown origin) assessed as remaining enzyme activity at 1 uM using RHKK(Ac)AMC fluorogenic peptide as substrate preincubated for 10 mins followed by substrate addition for 1 hr in presence of ATP by fluoroscence based assay relative to control; details: time 70.0 min
[6] = biological target: Histone deacetylase 11 (Homo sapiens) (UniProt Q96DB2); test: Inhibition of HDAC11 (unknown origin) assessed as remaining activity using (Boc-(Trifluoroacetyl) Lysine-AMC) fluorogenic peptide as substrate preincubated for 10 mins followed by substrate addition for 30 mins in presence of ATP by fluoroscence assay relative to control; details: time 40.0 min
TMD8 [7] = test: In vivo antitumor activity against TMD8 cells xenografted in CB.17 SCID mouse assessed as inhibition of tumor growth at 50 mg/kg/day, po for 21 consecutive days measured every 3 days by Vernier caliper; type: functional, organism-based; details: Homo sapiens, time 21.0 day
Histone deacetylase 1 [8] = biological target: T1, Histone deacetylase 1 (Homo sapiens, UniProt Q13547); test: Inhibition of HDAC1 in human TMD8 cells assessed as histone H3 acetylation after 24 hrs by Western blot analysis; type: cell-based; details: dose 2.5-10 µM, DDE = dose-dependent effect
Histone deacetylase 1 [9] = biological target: T1, Histone deacetylase 1; test: Inhibition of HDAC1 in human TMD8 cells assessed as histone H4 acetylation after 24 hrs by Western blot analysis; type: cell-based; details: dose 2.5-10 µM, DDE = dose-dependent effect
Histone deacetylase 2 [10] = biological target: T2, Histone deacetylase 2 (Homo sapiens, UniProt Q92769); test: Inhibition of HDAC2 in human TMD8 cells assessed as histone H3 acetylation after 24 hrs by Western blot analysis; type: cell-based; details: dose 2.5-10 µM, DDE = dose-dependent effect
Histone deacetylase 2 [11] = biological target: T2, Histone deacetylase 2; test: Inhibition of HDAC2 in human TMD8 cells assessed as histone H4 acetylation after 24 hrs by Western blot analysis; type: cell-based; details: dose 2.5-10 µM, DDE = dose-dependent effect
Histone deacetylase 3 [12] = biological target: T3, Histone deacetylase 3 (Homo sapiens, UniProt O15379); test: Inhibition of HDAC3 in human TMD8 cells assessed as histone H3 acetylation after 24 hrs by Western blot analysis; type: cell-based; details: dose 2.5-10 µM, DDE = dose-dependent effect
Histone deacetylase 3 [13] = biological target: T3, Histone deacetylase 3; test: Inhibition of HDAC3 in human TMD8 cells assessed as histone H4 acetylation after 24 hrs by Western blot analysis; type: cell-based; details: dose 2.5-10 µM, DDE = dose-dependent effect
TMD8 [14] = test: Induction of apoptosis in human TMD8 cells assessed as cleavage of inactive caspase-3 at 2.5 to 10 uM after 24 hrs by Western blot analysis; type: functional, cell-based; details: dose 2.5-10 µM
TMD8 [15] = test: Induction of apoptosis in human TMD8 cells assessed as increase in cleaved caspase-3 levels at 2.5 to 10 uM after 24 hrs by Western blot analysis; type: functional, cell-based; details: dose 2.5-10 µM
TMD8 [16] = test: Induction of apoptosis in human TMD8 cells assessed as increase in cleaved PARP levels at 2.5 to 10 uM after 24 hrs by Western blot analysis; type: functional, cell-based; details: dose 2.5-10 µM
Mus musculus = test: Upregulation of acetylated-H3 levels in CB.17 SCID mouse xenografted with human TMD8 cells at 50 to 100 mg/kg/day, po measured after 21 days by Western blot analysis; type: functional, organism-based; details: dose 50-100 mg/kg/day, time 21.0 day
TMD8 [17] = test: Induction of cell cycle arrest in human TMD8 cells assessed as accumulation of cells at G2/M phase incubated for 24 hrs by propidium iodide based flow cytometric analysis; type: functional; details: dose 0.25-1 µM, DDE = dose-dependent effect
DLBCL = test: Cytotoxicity against human DLBCL cells assessed as cell growth inhibition; type: functional, cell-based
TMD8 [18] = test: Induction of apoptosis in human TMD8 cells incubated for 24 hrs by propidium iodide based flow cytometric analysis; type: functional, cell-based; details: dose 0.25-1 µM, DDE = dose-dependent effect

T2 sequence (Q92769 whole entry): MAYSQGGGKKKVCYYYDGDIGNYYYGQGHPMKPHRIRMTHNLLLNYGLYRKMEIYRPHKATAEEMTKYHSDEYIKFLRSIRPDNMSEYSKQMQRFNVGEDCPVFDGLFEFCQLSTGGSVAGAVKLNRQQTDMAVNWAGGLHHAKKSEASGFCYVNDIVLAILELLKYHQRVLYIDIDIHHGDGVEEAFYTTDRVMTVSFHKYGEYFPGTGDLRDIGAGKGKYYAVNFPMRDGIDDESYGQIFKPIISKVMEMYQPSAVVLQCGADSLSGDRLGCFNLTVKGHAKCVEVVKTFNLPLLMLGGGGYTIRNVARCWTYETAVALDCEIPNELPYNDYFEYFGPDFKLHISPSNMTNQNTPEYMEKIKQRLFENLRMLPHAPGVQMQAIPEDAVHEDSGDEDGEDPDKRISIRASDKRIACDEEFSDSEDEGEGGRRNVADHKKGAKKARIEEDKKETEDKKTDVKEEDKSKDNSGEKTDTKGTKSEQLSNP
T3 sequence (O15379 whole entry): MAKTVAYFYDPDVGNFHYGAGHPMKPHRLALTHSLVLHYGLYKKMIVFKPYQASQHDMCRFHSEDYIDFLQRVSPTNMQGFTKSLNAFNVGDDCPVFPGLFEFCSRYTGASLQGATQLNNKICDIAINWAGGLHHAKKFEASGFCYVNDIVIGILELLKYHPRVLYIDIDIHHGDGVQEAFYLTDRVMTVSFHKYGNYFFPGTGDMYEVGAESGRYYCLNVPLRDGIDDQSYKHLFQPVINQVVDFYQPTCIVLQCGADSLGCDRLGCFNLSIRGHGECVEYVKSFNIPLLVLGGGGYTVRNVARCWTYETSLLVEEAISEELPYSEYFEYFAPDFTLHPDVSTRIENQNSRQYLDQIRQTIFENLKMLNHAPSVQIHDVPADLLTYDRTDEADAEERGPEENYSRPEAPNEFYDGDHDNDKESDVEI
T1 sequence (Q13547 whole entry): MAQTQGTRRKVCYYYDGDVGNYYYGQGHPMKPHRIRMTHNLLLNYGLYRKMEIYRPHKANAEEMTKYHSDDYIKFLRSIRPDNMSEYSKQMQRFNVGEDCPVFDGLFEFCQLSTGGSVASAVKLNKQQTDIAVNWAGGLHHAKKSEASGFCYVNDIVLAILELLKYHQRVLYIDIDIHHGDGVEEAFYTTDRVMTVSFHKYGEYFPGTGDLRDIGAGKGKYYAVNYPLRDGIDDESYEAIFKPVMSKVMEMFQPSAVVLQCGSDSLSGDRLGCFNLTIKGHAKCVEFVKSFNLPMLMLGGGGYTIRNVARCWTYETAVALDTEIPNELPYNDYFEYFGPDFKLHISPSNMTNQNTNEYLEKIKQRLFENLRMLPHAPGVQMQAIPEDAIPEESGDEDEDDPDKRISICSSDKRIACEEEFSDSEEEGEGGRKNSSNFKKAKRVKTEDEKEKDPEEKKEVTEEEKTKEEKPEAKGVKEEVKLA
Sequence of Histone deacetylase 7 (Homo sapiens) (Q8WUI4 whole entry): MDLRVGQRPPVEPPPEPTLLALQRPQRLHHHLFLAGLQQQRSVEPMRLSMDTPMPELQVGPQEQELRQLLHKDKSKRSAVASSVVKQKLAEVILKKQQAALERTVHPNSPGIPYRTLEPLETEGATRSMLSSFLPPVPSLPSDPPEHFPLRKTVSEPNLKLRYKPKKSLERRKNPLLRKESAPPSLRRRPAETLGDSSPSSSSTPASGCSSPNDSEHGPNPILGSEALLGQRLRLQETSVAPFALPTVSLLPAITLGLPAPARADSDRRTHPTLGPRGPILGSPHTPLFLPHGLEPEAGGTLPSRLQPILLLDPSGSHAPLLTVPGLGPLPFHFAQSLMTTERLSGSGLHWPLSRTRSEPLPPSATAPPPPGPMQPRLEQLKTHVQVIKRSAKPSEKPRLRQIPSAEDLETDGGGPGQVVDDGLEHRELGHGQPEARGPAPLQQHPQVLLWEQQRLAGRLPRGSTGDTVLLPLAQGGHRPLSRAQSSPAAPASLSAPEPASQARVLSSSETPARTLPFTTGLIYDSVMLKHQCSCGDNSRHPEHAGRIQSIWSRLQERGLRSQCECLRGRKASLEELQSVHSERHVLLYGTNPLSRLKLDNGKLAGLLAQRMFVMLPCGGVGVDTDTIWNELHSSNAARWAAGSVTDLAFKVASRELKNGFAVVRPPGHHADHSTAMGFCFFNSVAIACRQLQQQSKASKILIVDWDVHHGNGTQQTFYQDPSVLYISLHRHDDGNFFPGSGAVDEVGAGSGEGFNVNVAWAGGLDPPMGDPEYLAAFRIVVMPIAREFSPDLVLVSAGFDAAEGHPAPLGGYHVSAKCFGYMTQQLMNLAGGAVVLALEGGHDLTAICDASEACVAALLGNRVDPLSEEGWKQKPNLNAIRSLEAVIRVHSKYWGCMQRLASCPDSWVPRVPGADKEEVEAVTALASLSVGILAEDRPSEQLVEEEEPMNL
Sequence of Histone deacetylase 9 (Homo sapiens) (Q9UKV0 whole entry): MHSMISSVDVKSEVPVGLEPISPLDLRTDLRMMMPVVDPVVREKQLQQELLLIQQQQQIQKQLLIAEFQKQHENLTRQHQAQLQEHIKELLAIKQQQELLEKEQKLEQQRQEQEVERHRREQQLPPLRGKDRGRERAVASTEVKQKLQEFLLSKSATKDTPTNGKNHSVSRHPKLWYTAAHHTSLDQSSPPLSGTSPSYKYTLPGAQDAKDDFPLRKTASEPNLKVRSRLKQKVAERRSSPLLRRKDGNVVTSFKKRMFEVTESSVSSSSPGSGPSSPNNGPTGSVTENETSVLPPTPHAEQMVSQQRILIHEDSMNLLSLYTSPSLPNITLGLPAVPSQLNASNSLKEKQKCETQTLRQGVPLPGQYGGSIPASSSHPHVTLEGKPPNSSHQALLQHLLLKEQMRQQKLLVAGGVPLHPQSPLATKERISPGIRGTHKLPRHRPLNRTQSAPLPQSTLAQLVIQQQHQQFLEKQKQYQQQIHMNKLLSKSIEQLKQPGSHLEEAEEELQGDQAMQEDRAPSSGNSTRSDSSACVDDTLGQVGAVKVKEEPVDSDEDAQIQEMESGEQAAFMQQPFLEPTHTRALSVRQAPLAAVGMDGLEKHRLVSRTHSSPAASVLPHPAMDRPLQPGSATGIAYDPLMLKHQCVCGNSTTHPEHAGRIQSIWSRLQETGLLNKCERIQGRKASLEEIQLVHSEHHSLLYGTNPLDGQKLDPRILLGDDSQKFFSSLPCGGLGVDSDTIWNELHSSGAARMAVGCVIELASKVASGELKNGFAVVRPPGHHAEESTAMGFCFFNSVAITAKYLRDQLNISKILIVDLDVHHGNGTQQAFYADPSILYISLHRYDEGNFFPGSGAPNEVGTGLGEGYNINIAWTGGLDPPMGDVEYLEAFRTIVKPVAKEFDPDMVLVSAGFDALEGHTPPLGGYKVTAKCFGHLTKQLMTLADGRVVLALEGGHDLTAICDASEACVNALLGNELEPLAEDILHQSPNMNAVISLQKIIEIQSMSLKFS
Sequence of Histone deacetylase 4 (Homo sapiens) (P56524 whole entry): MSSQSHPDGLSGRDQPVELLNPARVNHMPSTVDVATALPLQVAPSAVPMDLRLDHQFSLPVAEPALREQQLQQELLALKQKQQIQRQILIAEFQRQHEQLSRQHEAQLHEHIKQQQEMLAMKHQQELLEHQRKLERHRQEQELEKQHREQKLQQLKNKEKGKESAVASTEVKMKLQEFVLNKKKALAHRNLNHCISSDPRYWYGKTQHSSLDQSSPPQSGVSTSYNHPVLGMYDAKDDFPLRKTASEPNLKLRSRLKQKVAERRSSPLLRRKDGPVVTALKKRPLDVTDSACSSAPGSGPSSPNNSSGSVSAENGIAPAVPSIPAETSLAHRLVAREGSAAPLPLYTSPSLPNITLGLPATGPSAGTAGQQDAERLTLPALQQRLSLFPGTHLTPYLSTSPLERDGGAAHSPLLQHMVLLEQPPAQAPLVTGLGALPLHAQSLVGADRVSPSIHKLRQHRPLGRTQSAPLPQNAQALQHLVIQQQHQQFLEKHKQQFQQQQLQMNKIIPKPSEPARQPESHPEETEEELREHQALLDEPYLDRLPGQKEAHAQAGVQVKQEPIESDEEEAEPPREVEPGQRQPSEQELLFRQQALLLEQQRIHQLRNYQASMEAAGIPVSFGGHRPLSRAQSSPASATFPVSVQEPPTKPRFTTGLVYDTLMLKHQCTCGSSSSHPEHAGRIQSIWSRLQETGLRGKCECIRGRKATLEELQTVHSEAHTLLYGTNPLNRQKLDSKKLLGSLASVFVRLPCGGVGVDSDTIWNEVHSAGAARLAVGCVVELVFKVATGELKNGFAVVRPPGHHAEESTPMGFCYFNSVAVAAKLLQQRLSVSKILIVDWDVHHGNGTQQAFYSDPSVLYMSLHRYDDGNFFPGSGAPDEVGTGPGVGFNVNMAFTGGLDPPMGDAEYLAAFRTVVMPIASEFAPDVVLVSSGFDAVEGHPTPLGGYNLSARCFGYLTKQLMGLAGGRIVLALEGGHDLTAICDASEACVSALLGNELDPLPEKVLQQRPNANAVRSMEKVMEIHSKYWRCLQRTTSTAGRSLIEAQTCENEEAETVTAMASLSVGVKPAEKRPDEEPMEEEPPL
Sequence of Histone deacetylase 11 (Homo sapiens) (Q96DB2 whole entry): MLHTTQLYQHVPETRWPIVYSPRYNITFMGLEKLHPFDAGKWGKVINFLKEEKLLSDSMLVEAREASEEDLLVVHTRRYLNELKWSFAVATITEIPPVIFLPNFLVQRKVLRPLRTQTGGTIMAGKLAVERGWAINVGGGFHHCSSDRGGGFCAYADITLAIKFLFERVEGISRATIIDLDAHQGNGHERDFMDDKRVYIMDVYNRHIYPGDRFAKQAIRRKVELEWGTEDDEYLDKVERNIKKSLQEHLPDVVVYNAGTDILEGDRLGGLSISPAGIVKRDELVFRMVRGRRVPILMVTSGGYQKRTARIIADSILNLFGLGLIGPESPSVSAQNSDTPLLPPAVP

Activity [1]: 81.2%
Activity [2]: 84.4%
Activity [3]: 88.1%
Activity [4]: 92.3%
Activity [5]: 96.9%
Activity [6]: 92%
inhibition (Histone deacetylase 1 [8]): Dde
inhibition (Histone deacetylase 1 [9]): Dde
inhibition (Histone deacetylase 2 [10]): Dde
inhibition (Histone deacetylase 2 [11]): Dde
inhibition (Histone deacetylase 3 [12]): Dde
inhibition (Histone deacetylase 3 [13]): Dde
Structure (SMILES): Nc1ccccc1NC(=O)c1ccc(CN2CCC/C(=C\c3ccccn3)C2=O)cc1
Activity (TMD8 [7]): Active
Activity (TMD8 [14]): Active
Activity (TMD8 [15]): Active
Activity (TMD8 [16]): Active
Activity (Mus musculus): Active
Activity (TMD8 [17]): Dde
Activity (DLBCL): Active
Activity (TMD8 [18]): Dde

Reference: ChEMBL document CHEMBL5154672, “Design and synthesis of HDAC inhibitors to enhance the therapeutic effect of diffuse large B-cell lymphoma by improving metabolic stability and pharmacokinetic characteristics” (Eur J Med Chem, 2022)
